Experimental data published in ChEMBL document CHEMBL5291721, “A preclinical secondary pharmacology resource illuminates target-adverse drug reaction associations of marketed drugs” (Nat Commun, 2023).

Columns and labels:
Adenosine receptor A2a = Adenosine receptor A2a (Homo sapiens, UniProt P29274)
[1] = target: T1, Muscarinic acetylcholine receptor M1 (Homo sapiens, UniProt P11229); format: functional
T1 sequence (P11229 whole entry): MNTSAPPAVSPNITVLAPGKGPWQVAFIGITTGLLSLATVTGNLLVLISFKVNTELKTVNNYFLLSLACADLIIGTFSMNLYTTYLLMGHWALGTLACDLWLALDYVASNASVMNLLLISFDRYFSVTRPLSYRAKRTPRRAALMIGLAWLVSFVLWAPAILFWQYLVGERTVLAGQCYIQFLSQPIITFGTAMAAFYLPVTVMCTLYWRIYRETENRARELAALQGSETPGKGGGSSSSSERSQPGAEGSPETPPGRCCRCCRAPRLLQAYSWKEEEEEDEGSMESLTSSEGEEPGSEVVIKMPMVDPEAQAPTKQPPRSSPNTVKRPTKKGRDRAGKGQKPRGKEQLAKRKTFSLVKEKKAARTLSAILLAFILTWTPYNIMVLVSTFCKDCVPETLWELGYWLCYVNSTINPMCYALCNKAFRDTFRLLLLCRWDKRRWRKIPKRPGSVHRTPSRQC

[2] = target: Beta-1 adrenergic receptor (Homo sapiens, UniProt P08588); format: functional
Vasopressin V1a receptor = Vasopressin V1a receptor (Homo sapiens, UniProt P37288)
Cannabinoid receptor 1 = Cannabinoid receptor 1 (Homo sapiens, UniProt P21554); format: functional, cell-based
[3] = target: Growth hormone secretagogue receptor type 1 (Homo sapiens, UniProt Q92847)
[4] = target: T2, 5-hydroxytryptamine receptor 2C (Homo sapiens, UniProt P28335)
T2 sequence (P28335 whole entry): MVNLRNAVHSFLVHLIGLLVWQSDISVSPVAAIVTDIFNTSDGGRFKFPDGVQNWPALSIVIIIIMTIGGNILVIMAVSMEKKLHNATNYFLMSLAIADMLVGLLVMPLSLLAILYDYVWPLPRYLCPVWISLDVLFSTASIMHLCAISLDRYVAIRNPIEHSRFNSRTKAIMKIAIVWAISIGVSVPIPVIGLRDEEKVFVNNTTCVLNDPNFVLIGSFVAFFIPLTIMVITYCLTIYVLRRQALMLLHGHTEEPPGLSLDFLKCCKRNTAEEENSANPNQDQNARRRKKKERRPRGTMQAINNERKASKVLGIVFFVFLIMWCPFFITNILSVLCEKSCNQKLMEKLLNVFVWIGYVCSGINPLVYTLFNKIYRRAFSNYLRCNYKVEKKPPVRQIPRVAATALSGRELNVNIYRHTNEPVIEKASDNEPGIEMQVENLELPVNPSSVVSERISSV

[5] = target: T3, 5-hydroxytryptamine receptor 3A (Homo sapiens, UniProt P46098); format: functional
T3 sequence (P46098 whole entry): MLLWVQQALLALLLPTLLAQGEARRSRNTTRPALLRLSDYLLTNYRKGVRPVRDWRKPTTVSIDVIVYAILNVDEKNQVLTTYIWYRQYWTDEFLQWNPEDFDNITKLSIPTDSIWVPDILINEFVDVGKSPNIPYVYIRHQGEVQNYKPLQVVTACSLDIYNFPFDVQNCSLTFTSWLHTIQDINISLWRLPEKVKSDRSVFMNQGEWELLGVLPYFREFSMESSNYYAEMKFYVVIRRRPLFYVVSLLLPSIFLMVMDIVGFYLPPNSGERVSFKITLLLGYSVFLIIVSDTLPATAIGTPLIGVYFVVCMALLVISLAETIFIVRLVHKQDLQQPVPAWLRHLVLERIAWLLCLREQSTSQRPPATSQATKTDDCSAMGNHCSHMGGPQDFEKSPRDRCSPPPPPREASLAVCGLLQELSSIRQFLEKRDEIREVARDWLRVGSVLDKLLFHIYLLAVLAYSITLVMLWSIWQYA

[6] = target: Kappa-type opioid receptor (Homo sapiens, UniProt P41145)
Mu-type opioid receptor = Mu-type opioid receptor (Homo sapiens, UniProt P35372); test: biochemical; format: functional
[7] = target: T4, Equilibrative nucleoside transporter 1 (Homo sapiens, UniProt Q99808)
T4 sequence (Q99808 whole entry): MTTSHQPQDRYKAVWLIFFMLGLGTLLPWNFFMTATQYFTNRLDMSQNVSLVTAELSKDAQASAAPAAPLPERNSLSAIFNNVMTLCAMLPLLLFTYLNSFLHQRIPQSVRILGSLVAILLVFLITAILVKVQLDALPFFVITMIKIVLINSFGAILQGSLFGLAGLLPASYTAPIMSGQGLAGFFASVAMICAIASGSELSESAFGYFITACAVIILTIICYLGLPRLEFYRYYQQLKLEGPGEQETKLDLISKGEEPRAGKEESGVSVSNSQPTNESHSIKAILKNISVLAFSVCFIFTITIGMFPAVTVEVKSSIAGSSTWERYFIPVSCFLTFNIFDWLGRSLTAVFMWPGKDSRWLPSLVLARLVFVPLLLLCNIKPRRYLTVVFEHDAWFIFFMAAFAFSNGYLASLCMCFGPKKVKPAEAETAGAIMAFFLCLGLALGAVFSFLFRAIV
Note: assay procedure not described here.

Adenosine receptor A2a, sequence (P29274 whole entry): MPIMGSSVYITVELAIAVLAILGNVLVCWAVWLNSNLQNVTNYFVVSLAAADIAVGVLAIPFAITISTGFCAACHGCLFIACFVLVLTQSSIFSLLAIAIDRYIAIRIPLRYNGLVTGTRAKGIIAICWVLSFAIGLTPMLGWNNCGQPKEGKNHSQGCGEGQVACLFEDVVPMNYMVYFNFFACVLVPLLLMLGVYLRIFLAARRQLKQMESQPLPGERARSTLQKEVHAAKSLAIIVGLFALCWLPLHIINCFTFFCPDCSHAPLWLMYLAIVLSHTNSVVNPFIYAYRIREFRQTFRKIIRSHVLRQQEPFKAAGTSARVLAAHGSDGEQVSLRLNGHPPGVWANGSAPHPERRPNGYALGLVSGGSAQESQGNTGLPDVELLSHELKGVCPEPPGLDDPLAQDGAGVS
Beta-1 adrenergic receptor, sequence (P08588 whole entry): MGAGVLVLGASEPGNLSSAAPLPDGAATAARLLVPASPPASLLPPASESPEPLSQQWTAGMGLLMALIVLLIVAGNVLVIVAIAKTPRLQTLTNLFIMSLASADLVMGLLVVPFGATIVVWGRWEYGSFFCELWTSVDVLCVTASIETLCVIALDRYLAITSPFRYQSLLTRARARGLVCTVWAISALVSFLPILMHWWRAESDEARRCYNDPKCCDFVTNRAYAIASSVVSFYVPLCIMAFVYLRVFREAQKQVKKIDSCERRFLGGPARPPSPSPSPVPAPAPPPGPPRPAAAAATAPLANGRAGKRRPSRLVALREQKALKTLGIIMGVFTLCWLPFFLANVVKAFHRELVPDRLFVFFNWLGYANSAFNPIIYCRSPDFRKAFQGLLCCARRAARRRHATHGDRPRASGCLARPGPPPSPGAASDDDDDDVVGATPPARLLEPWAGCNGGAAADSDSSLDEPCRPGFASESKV
Cannabinoid receptor 1, sequence (P21554 whole entry): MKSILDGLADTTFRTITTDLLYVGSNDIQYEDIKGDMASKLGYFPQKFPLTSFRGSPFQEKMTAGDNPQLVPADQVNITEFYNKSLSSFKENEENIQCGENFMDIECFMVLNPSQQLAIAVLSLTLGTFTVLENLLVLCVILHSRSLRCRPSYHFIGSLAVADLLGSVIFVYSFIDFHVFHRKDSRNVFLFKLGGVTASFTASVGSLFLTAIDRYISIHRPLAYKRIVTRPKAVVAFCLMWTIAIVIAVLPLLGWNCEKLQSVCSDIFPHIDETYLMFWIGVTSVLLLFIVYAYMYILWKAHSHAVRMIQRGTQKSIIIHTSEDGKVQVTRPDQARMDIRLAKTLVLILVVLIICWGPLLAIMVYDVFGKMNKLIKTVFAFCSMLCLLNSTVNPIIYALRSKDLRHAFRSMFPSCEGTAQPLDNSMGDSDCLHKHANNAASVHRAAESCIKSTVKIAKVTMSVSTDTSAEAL
Growth hormone secretagogue receptor type 1, sequence (Q92847 whole entry): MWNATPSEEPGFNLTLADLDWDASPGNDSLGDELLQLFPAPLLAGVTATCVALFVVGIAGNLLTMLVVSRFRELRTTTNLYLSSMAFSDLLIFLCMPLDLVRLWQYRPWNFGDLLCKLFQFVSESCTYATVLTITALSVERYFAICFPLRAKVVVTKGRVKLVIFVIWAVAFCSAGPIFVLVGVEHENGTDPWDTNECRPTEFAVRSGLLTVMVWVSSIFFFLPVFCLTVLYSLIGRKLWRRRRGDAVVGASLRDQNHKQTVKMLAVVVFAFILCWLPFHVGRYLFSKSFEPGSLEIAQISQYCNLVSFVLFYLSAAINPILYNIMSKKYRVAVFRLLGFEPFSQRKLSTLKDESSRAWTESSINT
Kappa-type opioid receptor, sequence (P41145 whole entry): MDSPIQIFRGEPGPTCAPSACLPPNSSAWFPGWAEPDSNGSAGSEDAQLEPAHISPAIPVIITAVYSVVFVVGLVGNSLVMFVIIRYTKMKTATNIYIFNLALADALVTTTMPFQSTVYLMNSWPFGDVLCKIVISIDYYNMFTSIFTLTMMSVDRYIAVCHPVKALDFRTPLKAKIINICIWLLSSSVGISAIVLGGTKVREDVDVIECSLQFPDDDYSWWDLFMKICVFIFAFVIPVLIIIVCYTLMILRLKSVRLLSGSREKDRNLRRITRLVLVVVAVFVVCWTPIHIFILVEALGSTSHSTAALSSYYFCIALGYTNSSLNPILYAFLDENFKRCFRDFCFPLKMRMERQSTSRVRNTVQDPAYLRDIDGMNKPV
Vasopressin V1a receptor, sequence (P37288 whole entry): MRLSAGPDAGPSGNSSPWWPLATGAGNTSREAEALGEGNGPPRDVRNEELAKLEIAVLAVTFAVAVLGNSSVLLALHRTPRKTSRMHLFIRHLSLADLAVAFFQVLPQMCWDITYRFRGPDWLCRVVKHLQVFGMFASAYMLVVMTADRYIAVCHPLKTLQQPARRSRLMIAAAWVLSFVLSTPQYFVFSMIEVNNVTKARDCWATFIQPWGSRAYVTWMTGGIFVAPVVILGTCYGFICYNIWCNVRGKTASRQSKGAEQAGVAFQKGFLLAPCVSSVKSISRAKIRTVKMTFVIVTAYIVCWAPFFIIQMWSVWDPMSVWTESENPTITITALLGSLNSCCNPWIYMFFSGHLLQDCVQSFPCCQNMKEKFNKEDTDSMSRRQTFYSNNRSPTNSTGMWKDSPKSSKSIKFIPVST
Mu-type opioid receptor, sequence (P35372 whole entry): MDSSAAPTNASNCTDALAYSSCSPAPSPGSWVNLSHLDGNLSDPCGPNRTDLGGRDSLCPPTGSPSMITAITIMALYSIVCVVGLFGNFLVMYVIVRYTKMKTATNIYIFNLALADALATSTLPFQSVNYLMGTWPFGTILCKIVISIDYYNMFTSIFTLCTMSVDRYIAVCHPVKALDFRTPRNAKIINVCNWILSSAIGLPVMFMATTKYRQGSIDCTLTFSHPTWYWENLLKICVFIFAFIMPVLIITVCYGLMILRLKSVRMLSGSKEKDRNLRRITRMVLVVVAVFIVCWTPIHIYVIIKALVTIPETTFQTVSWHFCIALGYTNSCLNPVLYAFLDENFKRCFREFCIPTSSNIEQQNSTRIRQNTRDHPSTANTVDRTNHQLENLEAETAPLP

SMILES	AC50 (Adenosine receptor A2a) [µM]	AC50 [1] [µM]	AC50 [2] [µM]	AC50 (Vasopressin V1a receptor) [µM]	AC50 (Cannabinoid receptor 1) [µM]	AC50 [3] [µM]	AC50 [4] [µM]	AC50 [5] [µM]	AC50 [6] [µM]	AC50 (Mu-type opioid receptor) [µM]	AC50 [7] [µM]
O=C(O)c1cccc(-c2noc(-c3ccccc3F)n2)c1	> 30	> 10	–	–	–	–	–	–	–	–	–
C[N+](C)(C)CCOC(N)=O [CARBAMOYLCHOLINE]	> 10	–	> 10	> 10	> 30	> 10	> 30	> 10	> 10	> 30	> 10
CC(C)(N)Cc1ccc(Cl)cc1 [CHLORPHENTERMINE]	> 30	> 10	> 10	> 30	> 30	> 30	> 30	> 30	> 10	–	> 30
CN(C)[C@@H]1C(O)=C(C(N)=O)C(=O)[C@@]2(O)C(O)=C3C(=O)c4c(O)ccc(Cl)c4[C@@H](O)[C@H]3C[C@@H]12 [DEMECLOCYCLINE]	> 10	> 10	> 10	> 10	–	> 10	> 30	> 30	> 10	–	> 10
NS(=O)(=O)c1cc(Cl)c(Cl)c(S(N)(=O)=O)c1 [DICHLORPHENAMIDE]	> 10	> 10	> 10	> 10	–	> 10	> 30	> 30	> 10	–	> 10
C=C1C[C@@H]2[C@H](CC[C@]3(C)C(=O)CC[C@@H]23)[C@@]2(C)C=CC(=O)C=C12 [EXEMESTANE]	> 30	> 10	> 10	> 30	> 30	> 30	> 30	> 30	2.41	–	> 30
CS(=O)(=O)Nc1cc2occ(NC=O)c(=O)c2cc1Oc1ccccc1 [IGURATIMOD]	–	> 30	–	–	–	–	–	–	–	–	–
CC(=O)N(CC(O)CO)c1c(I)c(C(=O)NCC(O)CO)c(I)c(C(=O)NCC(O)CO)c1I (centres undefined) [IOHEXOL]	> 30	> 10	> 30	> 30	> 30	> 30	> 30	> 30	> 10	–	> 30
CN1C(=O)N(C)C2C1N(C)C(=O)N2C (centres undefined) [MEBICAR]	–	> 30	–	–	> 30	–	> 30	> 30	> 30	–	–
CC(=O)O[C@]1(C(C)=O)CC[C@H]2[C@@H]3C[C@H](C)C4=CC(=O)CC[C@]4(C)[C@H]3CC[C@@]21C [MEDROXYPROGESTERONE ACETATE]	> 30	–	> 30	> 30	–	> 30	–	–	–	–	> 30
CN(C/C=C/c1ccccc1)Cc1cccc2ccccc12 [NAFTIFINE]	> 30	> 10	> 30	–	> 30	> 30	> 30	> 30	10.6	–	> 30
CC(C)NCC1CCc2cc(CO)c([N+](=O)[O-])cc2N1 (centres undefined) [OXAMNIQUINE]	> 10	> 10	> 10	> 10	> 30	> 10	> 30	> 30	13.4	–	> 30
Nc1ccc(/N=N/c2ccccc2)c(N)n1 [PHENAZOPYRIDINE]	–	4.1	–	–	> 30	–	1.91	3.3	3.3	–	–
O=C1CCC(N2C(=O)c3ccccc3C2=O)C(=O)N1 (centres undefined) [THALIDOMIDE]	> 30	–	> 10	> 10	> 30	> 30	> 30	> 30	> 10	–	> 30
